{
  "source": "paper PMC9962735",
  "about": "“Synthesis and Cytotoxic Activity of the Derivatives of N-(Purin-6-yl)aminopolymethylene Carboxylic Acids and Related Compounds” (Molecules, 2023)",
  "key": {"[1]": {"system": "herpes simplex virus type 1 (HSV-1), including acyclovir-resistant HSV-1 strain", "design": "method as in doi:10.1002/ejoc.201900727, doi:10.1515/pac-2019-1214, doi:10.1007/s10593-021-02929-z", "conditions": "HSV-1 including acyclovir-resistant strain; cited from earlier work"}, "COLO201 cells": {"system": "COLO201 cells", "assay": "Cell cycle analysis by flow cytometry (propidium iodide), COLO201", "format": "cell-based, human", "conditions": "for Cell proliferation index (%) / Number of cells (%) in cell cycle phase G0/G1 / Number of cells (%) in cell cycle phase G2M / Number of cells (%) in cell cycle phase S: 24 h, M ± SD (n = 3)", "method": "To study the potential cytostatic effect of compound 1d, we chose the method of cell cycle analysis using flow cytometry by DNA staining with propidium iodide.\nTo analyze possible effects on the cell cycle, we tested three concentrations of compound 1d, which were close to CC50 calculated on the basis of viability assessment data (MTT assay).\nCell cycle analysis was performed by flow cytometry by staining DNA with propidium iodide (PI). For this, cells were seeded into 6-well plates: 2 × 10^5 COLO201 cells per well and 1.2 × 10^5 MDA-MB-231 cells per well. […] The final concentration of DMSO in the culture medium was 0.1%; an equivalent volume was added to the control cells. The plates were incubated for 24 h in a CO2 incubator. Then, cells were detached from the plastic surface using TrypLE, washed with PBS, and fixed with 70% ethanol. Next, the cells were incubated for 1 h in the dark at 4 °C, then sedimented by centrifugation at 184× g for 10 min, and washed twice with PBS. PBS (0.3 mL) containing 0.1% Triton X-100, 1 µg/mL PI, and 0.2 mg/mL RNAse A was added to the pellet, incubated for 30 min at room temperature in the dark, and analyzed on a CytoFlex flow cytometer (Beckman Coulter, Brea, CA, USA).\nThe cell population in the test sample was found and gated on forward versus side scatter (FSC-A vs. SSC-A). Next, doublets were discriminated and removed via PI signal height versus PI signal area (PI-H vs. PI-A). For cell cycle phases analysis, PI-A was plotted against number of events (number of cells) (PI-A vs. Count).\nThe flow cytometry data were processed using the Kaluza Analysis 2.1 software (Beckman Coulter, Brea, CA, USA). Percentages of cell populations distributed in the various phases of the cell cycle (sub-G1, G0/G1, S, and G2M) were calculated. The result was considered significant if the coefficient of variation (CV) was less than 6."}},
  "data": [
    {"smiles": "CC1COc2c(ccc(F)c2F)N1C(=O)CCCCCCCNc1ncnc2[nH]cnc12", "note": "(stereo not drawn) [Compound 1c]", "values": [
      {"measurement": "antiviral activity in vitro against HSV-1", "setting": "[1]", "result": "high antiviral activity"}
    ]},
    {"smiles": "CC1COc2c(ccc(F)c2F)N1C(=O)CCCCCCCCCCNc1ncnc2[nH]cnc12", "note": "(stereo not drawn) [Compound 1d]", "values": [
      {"measurement": "Cell proliferation index (%)", "setting": "COLO201 cells; COLO201, 0.9×10–6 M", "result": 37.05, "unit": "%"},
      {"measurement": "Number of cells (%) in cell cycle phase G0/G1", "setting": "COLO201 cells; COLO201, 0.9×10–6 M", "result": 62.95, "unit": "%"},
      {"measurement": "Number of cells (%) in cell cycle phase G2M", "setting": "COLO201 cells; COLO201, 0.9×10–6 M", "result": 15.70, "unit": "%"},
      {"measurement": "Number of cells (%) in cell cycle phase S", "setting": "COLO201 cells; COLO201, 0.9×10–6 M", "result": 21.35, "unit": "%"},
      {"measurement": "Cell proliferation index (%)", "setting": "COLO201 cells; COLO201, 1×10–6 M", "result": "36.78±0.29", "unit": "%"},
      {"measurement": "Number of cells (%) in cell cycle phase G0/G1", "setting": "COLO201 cells; COLO201, 1×10–6 M", "result": 63.21, "unit": "%"},
      {"measurement": "Number of cells (%) in cell cycle phase G2M", "setting": "COLO201 cells; COLO201, 1×10–6 M", "result": "15.41±0.74", "unit": "%"},
      {"measurement": "Number of cells (%) in cell cycle phase S", "setting": "COLO201 cells; COLO201, 1×10–6 M", "result": 21.38, "unit": "%"},
      {"measurement": "Cell proliferation index (%)", "setting": "COLO201 cells; COLO201, 2×10–6 M", "result": 35.35, "unit": "%"},
      {"measurement": "Number of cells (%) in cell cycle phase G0/G1", "setting": "COLO201 cells; COLO201, 2×10–6 M", "result": 64.60, "unit": "%"},
      {"measurement": "Number of cells (%) in cell cycle phase G2M", "setting": "COLO201 cells; COLO201, 2×10–6 M", "result": 16.84, "unit": "%"},
      {"measurement": "Number of cells (%) in cell cycle phase S", "setting": "COLO201 cells; COLO201, 2×10–6 M", "result": 18.51, "unit": "%"},
      {"measurement": "cell cycle arrest phase", "setting": "COLO201 cells; COLO201, concentrations close to CC50, 24 h", "result": "cell cycle arrest occurred in the G2/M phase"},
      {"measurement": "cell proliferation index", "setting": "COLO201 cells; COLO201, concentrations close to CC50, 24 h, range over the concentrations", "result": "35–37%"}
    ]}
  ]
}
